Laboratory results reported in patent US8415384B2, “Reducing myocardial reperfusion injury by the combination therapy of protein kinase A activation and B1-adrenergic receptor blockade” (The Board of Regents of the University of Texas System, priority 2008, dated 2013).
Like-named read-outs stand apart in the source and are kept apart here. Where no end group is shown, it is not given here.

Experiments:
[1] = tested on: rat myocardial ischemia-reperfusion model; experiment: rat myocardial ischemia-reperfusion model (30-min coronary occlusion, 4-hr reperfusion), infarct size; type: in vivo; conditions: for increase of infarct size (IS): pre-ischemic infusion (10-min), ICI-118551 100 μg/kg/min, CGRP8-37 3 ng/kg/min, n=8/group; for effect on infarct size (in words): infusion at late ischemia-early reperfusion
Text: N=6 rats/group. […] Yellow zone within the red is the infarcted area. Red zone is the area-at-risk supplied by the occluded left anterior descending coronary artery. Blue zone is non-risk zone supplied by no-occluded right and circumflex coronary arteries. Infarct size is normalized as the ration of yellow-area/red-area. Acute infarction-reperfusion model consists of 30-minute occlusion of the left anterior descending coronary artery followed by four-hour reperfusion. Infarct-size was quantified at the end of four-hour reperfusion. N=6 rats/group. Inventors used rat MI model (30-min ischemia and 4 h reperfusion). […] The effect of combination therapy on myocyte protection was further assessed in a simulated ischemia-reperfusion model of isolated rat ventricular myocytes (2-hr ischemia and 1-hr reperfusion). […] The mechanisms underlying combination therapy were determined by assessing myocardial PKA and PKC activity in normal rats. […] Experimental Myocardial Ischemia-Reperfusion Model. The rat myocardial ischemia-reperfusion model will be used (Birnbaum et al., 2005; Huang et al., 2007a). This model consists of 30 min coronary artery occlusion followed by 4-hr reperfusion. […] To determine the effect of β1-adrenergic receptor antagonist and the synergistic action of both PKA activator and β1-adrenergic receptor antagonist, esmolol ([…]) will be intravenously infused to rats with or without milrinone. Arterial blood pressure and heart rate will be monitored continuously throughout the experiments. Method for in vivo myocardial infarct study: Following anesthesia and ventilation support, the chest is opened and the left coronary artery encircled with a suture and ligated for 30 min. The snare is then released and myocardium reperfused for 4 hr. The left coronary artery is then reoccluded and Evan's blue dye injected into the right ventricle. The LV is sliced into 6-7 sections. […] The areas of ischemia and necrosis in each slice are determined by planimetry, converted into percentages of the whole for each slice, and multiplied by the weight of the slice.

[2] = cited from earlier work
[3] = tested on: isolated rat ventricular myocytes; experiment: simulated ischemia-reperfusion of isolated rat ventricular myocytes (2-hr hypoxia, 1-hr re-oxygenation), myocyte death; type: cell-based
Experimental: In vitro myocyte ischemia/reperfusion study consists of 2-hour hypoxia followed by 1-hour re-oxygenation. Hypoxia is created by layering mineral oil over the cells. Re-oxygenation is made by removal of the oil. Myocyte death is quantified at the end of 1-hour reperfusion.
(§1) Inventors used rat MI model (30-min ischemia and 4 h reperfusion). […] The effect of combination therapy on myocyte protection was further assessed in a simulated ischemia-reperfusion model of isolated rat ventricular myocytes (2-hr ischemia and 1-hr reperfusion). […] The mechanisms underlying combination therapy were determined by assessing myocardial PKA and PKC activity in normal rats.
To verify that infarct-size reducing or limiting effect is a direct product of PKA activation on myocyte survival but not a secondary effect due to salutatory coronary/systemic hemodynamic alternations, the inventors tested the effect of PKA activation by milrinone on isolated rat ventricular myocytes in primary culture. In vitro myocyte ischemia-reperfusion study consists of 2-hour hypoxia followed by 1-hour re-oxygenation. Hypoxia is created by layering mineral oil over the cells. Re-oxygenation is made by removal of the oil. Myocyte death is quantified at the end of 1-hour reperfusion.

[4] = tested on: acute myocardial infarction; conditions: rat model, administration before the onset of acute myocardial infarction; cited from earlier work
[5] = tested on: acute myocardial infarction; conditions: canine model, administration 30-min after the onset of acute myocardial infarction; cited from earlier work
PKA = experiment: myocardial PKA activity after IV infusion in normal rats; type: in vivo, rat; conditions: 10-min tail vein infusion, peaked at 5-min post-infusion, ventricular tissue
Experimental: as §1

[6] = milrinone 5 μg/kg/min, esmolol 10 μg/kg/min

**Q.** For `Cc1ccc(OCC(O)C(C)NC(C)C)c2c1CCC2` (centres unmarked) [ICI-118551], which “increase of infarct size (IS)” value [1] is on record?
**A.** The value was 44%.

**Q.** Which “incidence of doxorubicin-induced cardiomyopathy” value ([2]; dose of 501-550 mg/m^2 body surface area, patients) does the source give for `COc1cccc2c1C(=O)c1c(O)c3c(c(O)c1C2=O)C[C@@](O)(C(=O)CO)C[C@@H]3O[C@H]1C[C@H](N)[C@H](O)[C@H](C)O1` [doxorubicin] here?
**A.** Its value is over 5%.

**Q.** And the “incidence of doxorubicin-induced cardiomyopathy” value ([2]; dose over 550 mg/m^2, patients)?
**A.** The value was 30%.

**Q.** Which “effect on infarct size (in words)” value [1, 6] does the source give for `COC(=O)CCc1ccc(OCC(O)CNC(C)C)cc1` (centres unmarked) [esmolol] here?
**A.** The value was “did not change infarct size”.

**Q.** Which “infarct-size reduction compared with saline control” value ([1]; 10-minute infusion from last 5 minutes of 30-minute ischemia to first 5 minutes of four-hour reperfusion, milrinone 5 μg/kg/min, esmolol 10 μg/kg/min, N=6 rats/group) does the source give for `Cc1[nH]c(=O)c(C#N)cc1-c1ccncc1` [milrinone] here?
**A.** The value was 53±5%.

**Q.** What about the “effect on infarct size (in words)” value [1, 6] of the same compound?
**A.** The value was “robust infarct-size reduction”.

**Q.** What about the “milrinone-induced myocyte protection in presence of PKA inhibitor” value ([3]; cells pretreated with PKA inhibitor Rp-CAMP 100 μmol/L) of the same compound?
**A.** Its value is “abolished”.

**Q.** What about the “reduction of myocyte death compared to saline control” value ([3]; milrinone 4.7 μmol/L, thirty minutes after the onset of ischemia) of the same compound?
**A.** Its value is 11%.

**Q.** And the “effect on infarct size, given before onset of infarction (preconditioning)” value [4]?
**A.** The value was “infarct-size reduction”.

**Q.** And the “effect on infarct size, given after onset of infarction” value [5]?
**A.** The value was “no infarct-size reduction”.

**Q.** Which “effect on infarct size (IS) of single agent (in words)” value ([1]; CGRP or terbutaline alone, late ischemia-early reperfusion) does the source give for `CC(C)(C)NCC(O)c1cc(O)cc(O)c1` (centres unmarked) [terbutaline] here?
**A.** The value was “did not reduce IS”.

**Q.** What about the “myocyte survival benefit of single agent (in words)” value ([3]; CGRP or terbutaline alone) of the same compound?
**A.** The value was “no myocyte survival benefit”.

**Q.** What about the “increase of PKA activity” value (PKA) of the same compound?
**A.** Its value is 30%.

**Q.** With “CGRP8-37: CGRP-receptor blocker (VTHRLAGLLSRSGGVVKNNFVPTNVGSKAF; ends and bridges not checked; UniProt P06881 90-119, looked up, fragment)” as the compound, how does the “increase of infarct size (IS)” value [1] read?
**A.** The value was 36%.
